In ChEMBL document CHEMBL3763146 (J Med Chem, 2016):

Assays:
[1] = Half life in rat at 1 mg/kg, iv or 2 mg/kg, po; type: ADME, organism-based; conditions: in vivo
[2] = target: T1, Beta-3 adrenergic receptor (Homo sapiens, UniProt P13945); assay: Agonist activity at human beta3 adrenergic receptor expressed in CHO cells assessed as accumulation of cAMP after 30 mins by TR-FRET assay; type: functional, cell-based
Target sequence in this assay (P13945 whole entry): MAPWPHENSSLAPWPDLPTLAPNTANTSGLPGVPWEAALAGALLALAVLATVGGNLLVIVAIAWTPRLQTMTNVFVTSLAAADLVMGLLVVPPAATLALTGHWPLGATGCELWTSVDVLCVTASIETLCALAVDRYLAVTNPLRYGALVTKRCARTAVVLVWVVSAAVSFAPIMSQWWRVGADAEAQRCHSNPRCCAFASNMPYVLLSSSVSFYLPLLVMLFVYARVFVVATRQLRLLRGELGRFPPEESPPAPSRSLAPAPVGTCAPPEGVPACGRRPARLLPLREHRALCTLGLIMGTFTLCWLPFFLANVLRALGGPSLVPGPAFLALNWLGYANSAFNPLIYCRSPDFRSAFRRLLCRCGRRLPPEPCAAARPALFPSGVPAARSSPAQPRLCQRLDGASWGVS

[3] = system: Rattus norvegicus; assay: Dose normalized total AUC in rat at 2 mg/kg, po; type: ADME, organism-based; conditions: in vivo
[4] = target: Voltage-gated inwardly rectifying potassium channel KCNH2 (Homo sapiens, UniProt Q12809); assay: Binding affinity to human ERG channel
[5] = Induction of phospholidosis in human HepG2 cells incubated overnight by […] in presence of fluorescent labeled phospholipid probe NBD-PE; type: cell-based; conditions: read-out: A50
[6] = target: Sodium channel protein type 2 subunit alpha (Homo sapiens, UniProt Q99250); assay: Inhibition of human Nav1.2 channel expressed in Xenopus oocytes by two-intracellular microelectrode voltage clamp method; type: cell-based
[7] = target: Beta-1 adrenergic receptor (Homo sapiens, UniProt P08588)
Description: Displacement of [125]I-cyanopindolol from recombinant human beta1 adrenergic receptor after 1 hr by scintillation counting method

[8] = target: T1, Beta-3 adrenergic receptor; assay: Agonist activity at human beta3 adrenergic receptor expressed in CHO cells assessed as accumulation of cAMP after 30 mins by TR-FRET assay relative to (R)-(-)-isoproterenol; type: functional, cell-based
Target sequence in this assay (P13945 whole entry, looked up): as the sequence (P13945 whole entry) above

[9] = target: Sodium-dependent serotonin transporter (Homo sapiens, UniProt P31645); assay: Inhibition of human SERT expressed in HEK293 cells preincubated for 30 mins followed by fluorescent substrate addition measured after 30 mins by plate reader analysis; type: cell-based
[10] = Oral bioavailability in rat at 2 mg/kg; type: ADME, organism-based; conditions: in vivo
[11] = Plasma clearance in rat at 1 mg/kg, iv or 2 mg/kg, po; type: ADME, organism-based
[12] = target: Voltage-dependent L-type calcium channel subunit alpha-1C (Homo sapiens, UniProt Q13936); assay: Displacement of [3H]-diltiazem from human Cav1.2 channel
[13] = target: Beta-2 adrenergic receptor (Homo sapiens, UniProt P07550)
Description: Displacement of [125]I-cyanopindolol from human recombinant beta2 adrenergic receptor after 1 hr by scintillation counting method

[14] = Distribution coefficient, logD of the compound at pH 7.4; type: physicochemical; conditions: octanol/water
[15] = Stability in human plasma assessed as parent compound remaining at 24 hrs by LC-MS analysis; type: ADME, cell-free; conditions: read-out: Stability
[16] = Stability in rat plasma assessed as parent compound remaining at 24 hrs by LC-MS analysis; type: ADME, cell-free; conditions: read-out: Stability
[17] = target: Cytochrome P450 3A4 (Homo sapiens, UniProt P08684); assay: Inhibition of CYP3A4 in human liver microsomes assessed as testosterone 6beta-hydroxylation; type: ADME
[18] = target: Cytochrome P450 2D6 (Homo sapiens, UniProt P10635); assay: Inhibition of CYP2D6 in human liver microsomes assessed as dextraomethorphan O-demethylation; type: ADME
[19] = target: Cytochrome P450 2C9 (Homo sapiens, UniProt P11712); assay: Inhibition of CYP2C9 in human liver microsomes assessed as diclofenac alpha'-hydroxylation; type: ADME
[20] = system: Rattus norvegicus; assay: Increase in circulating free fatty acid level in iv infused Sprague-Dawley rat after 45 mins by liquid chromatography-tandem mass spectrometric analysis; type: functional
[21] = system: Rattus norvegicus; assay: Increase in circulating glycerol level in iv infused Sprague-Dawley rat after 45 mins by liquid chromatography-tandem mass spectrometric analysis; type: functional

Sodium-dependent serotonin transporter, sequence (P31645 whole entry): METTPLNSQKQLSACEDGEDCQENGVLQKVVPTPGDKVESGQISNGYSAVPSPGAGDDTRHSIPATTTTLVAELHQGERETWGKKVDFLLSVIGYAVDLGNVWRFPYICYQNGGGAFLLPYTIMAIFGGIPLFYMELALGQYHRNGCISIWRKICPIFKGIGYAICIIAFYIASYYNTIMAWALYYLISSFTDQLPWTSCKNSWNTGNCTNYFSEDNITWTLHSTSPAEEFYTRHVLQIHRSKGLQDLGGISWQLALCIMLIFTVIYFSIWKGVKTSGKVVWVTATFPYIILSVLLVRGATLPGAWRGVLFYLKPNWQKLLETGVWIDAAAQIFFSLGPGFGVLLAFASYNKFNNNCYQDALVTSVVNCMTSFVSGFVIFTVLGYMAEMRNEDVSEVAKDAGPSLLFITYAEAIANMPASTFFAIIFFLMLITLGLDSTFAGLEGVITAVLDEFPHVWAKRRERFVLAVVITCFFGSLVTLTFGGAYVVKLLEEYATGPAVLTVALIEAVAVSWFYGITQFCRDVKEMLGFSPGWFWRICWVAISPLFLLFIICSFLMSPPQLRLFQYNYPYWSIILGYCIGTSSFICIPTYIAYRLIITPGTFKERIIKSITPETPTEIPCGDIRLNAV
Sodium channel protein type 2 subunit alpha, sequence (Q99250 whole entry, looked up): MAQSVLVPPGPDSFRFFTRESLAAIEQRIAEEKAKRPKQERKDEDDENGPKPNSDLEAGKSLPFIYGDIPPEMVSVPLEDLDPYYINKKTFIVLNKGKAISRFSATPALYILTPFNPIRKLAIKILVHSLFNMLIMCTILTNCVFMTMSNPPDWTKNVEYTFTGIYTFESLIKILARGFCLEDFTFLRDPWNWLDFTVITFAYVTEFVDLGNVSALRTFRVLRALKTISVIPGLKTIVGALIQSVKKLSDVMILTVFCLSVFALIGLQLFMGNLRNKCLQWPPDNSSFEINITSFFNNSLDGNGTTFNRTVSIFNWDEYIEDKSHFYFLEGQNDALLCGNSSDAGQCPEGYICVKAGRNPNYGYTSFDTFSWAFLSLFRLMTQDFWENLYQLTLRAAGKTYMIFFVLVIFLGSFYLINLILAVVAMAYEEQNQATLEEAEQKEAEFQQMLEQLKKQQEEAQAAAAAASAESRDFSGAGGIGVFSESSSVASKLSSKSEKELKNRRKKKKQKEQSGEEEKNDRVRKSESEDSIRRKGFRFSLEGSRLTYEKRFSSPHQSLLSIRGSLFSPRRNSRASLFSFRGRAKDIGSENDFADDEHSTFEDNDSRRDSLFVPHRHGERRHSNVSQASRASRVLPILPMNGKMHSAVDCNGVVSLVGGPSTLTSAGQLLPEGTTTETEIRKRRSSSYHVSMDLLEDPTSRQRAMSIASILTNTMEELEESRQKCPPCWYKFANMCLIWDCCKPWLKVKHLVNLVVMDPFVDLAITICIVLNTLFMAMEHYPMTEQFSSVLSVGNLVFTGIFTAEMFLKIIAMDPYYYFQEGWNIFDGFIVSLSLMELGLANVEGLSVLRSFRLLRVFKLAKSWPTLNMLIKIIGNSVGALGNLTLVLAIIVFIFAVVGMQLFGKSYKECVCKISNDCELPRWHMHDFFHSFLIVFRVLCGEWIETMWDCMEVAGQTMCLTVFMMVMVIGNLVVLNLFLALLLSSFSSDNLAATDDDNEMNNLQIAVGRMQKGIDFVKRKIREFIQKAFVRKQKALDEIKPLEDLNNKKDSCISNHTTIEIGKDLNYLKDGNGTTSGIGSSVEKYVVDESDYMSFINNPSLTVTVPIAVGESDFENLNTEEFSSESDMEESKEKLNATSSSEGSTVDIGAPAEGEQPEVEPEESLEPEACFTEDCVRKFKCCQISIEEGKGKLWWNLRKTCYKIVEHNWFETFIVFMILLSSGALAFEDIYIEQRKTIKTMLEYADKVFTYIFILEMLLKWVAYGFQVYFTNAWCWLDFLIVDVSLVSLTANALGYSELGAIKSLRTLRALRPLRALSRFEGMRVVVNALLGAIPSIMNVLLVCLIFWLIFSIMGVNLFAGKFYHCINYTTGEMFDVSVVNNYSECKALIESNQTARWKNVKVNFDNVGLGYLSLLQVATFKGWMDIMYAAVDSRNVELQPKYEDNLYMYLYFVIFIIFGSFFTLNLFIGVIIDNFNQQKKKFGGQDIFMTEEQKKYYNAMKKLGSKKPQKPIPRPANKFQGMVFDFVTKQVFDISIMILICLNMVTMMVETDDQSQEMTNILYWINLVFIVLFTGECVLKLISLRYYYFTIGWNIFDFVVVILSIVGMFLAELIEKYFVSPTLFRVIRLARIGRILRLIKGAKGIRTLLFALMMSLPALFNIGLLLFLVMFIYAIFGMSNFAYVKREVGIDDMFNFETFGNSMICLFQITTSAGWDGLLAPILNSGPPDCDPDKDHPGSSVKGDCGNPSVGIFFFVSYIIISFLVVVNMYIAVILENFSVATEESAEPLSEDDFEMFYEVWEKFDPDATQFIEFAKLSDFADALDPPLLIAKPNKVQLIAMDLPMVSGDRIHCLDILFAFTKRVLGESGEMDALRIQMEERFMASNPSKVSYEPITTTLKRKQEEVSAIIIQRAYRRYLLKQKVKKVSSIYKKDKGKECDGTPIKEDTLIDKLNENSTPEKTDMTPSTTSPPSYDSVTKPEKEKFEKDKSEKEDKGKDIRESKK
Beta-2 adrenergic receptor, sequence (P07550 whole entry): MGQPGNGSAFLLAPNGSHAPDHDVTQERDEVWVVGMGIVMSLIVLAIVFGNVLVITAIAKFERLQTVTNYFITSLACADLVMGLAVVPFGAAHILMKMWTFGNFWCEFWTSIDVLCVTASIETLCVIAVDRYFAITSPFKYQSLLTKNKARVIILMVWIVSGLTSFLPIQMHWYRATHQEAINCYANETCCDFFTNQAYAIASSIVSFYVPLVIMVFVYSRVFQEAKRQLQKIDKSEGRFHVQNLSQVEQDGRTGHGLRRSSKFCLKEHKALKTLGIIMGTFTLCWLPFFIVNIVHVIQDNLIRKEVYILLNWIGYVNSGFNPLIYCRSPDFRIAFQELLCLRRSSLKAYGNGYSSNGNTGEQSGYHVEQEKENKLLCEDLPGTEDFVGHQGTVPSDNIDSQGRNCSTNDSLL
Beta-1 adrenergic receptor, sequence (P08588 whole entry): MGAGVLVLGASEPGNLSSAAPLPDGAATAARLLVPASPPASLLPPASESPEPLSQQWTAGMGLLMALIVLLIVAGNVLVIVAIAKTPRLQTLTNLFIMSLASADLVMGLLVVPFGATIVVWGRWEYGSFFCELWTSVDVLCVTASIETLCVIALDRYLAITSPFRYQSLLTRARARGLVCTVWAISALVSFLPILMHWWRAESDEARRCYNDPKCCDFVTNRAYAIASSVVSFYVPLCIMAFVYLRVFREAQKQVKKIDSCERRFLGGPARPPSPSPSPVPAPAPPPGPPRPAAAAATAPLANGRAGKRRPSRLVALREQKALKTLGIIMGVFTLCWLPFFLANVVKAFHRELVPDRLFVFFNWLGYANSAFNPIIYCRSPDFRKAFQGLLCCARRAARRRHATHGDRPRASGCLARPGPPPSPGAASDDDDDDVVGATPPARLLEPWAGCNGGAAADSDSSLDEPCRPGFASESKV
Cytochrome P450 3A4, sequence (P08684 whole entry): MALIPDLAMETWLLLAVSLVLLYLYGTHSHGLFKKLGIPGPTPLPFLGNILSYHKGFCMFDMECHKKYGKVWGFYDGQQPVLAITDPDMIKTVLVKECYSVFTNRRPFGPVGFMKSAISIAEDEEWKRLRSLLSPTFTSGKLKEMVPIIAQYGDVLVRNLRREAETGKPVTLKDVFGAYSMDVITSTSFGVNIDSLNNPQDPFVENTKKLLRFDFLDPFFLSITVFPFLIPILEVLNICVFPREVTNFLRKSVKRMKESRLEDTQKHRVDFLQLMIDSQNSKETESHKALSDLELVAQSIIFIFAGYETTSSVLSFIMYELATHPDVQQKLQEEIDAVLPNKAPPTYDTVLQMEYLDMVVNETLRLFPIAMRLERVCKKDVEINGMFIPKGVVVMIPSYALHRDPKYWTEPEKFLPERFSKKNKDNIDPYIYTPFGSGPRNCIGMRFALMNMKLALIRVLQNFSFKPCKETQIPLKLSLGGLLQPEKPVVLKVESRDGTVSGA
Cytochrome P450 2D6, sequence (P10635 whole entry): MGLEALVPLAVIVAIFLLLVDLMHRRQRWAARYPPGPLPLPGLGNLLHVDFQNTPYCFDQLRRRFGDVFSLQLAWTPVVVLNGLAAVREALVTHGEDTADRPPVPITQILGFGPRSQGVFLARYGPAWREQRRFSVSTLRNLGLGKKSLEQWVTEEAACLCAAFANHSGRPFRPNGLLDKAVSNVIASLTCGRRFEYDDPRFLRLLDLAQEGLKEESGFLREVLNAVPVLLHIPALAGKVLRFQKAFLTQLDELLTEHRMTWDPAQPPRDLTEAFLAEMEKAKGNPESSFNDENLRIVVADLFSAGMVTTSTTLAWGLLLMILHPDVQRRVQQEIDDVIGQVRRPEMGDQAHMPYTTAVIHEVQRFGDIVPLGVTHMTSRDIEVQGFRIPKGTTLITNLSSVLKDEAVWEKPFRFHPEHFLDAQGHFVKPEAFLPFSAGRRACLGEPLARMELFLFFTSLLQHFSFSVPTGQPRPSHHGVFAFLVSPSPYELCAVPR

Row | half-life [1] | EC50 [2] | AC50 [5] | IC50 [6] | IC50 [7] | max activation [8] | IC50 [9] | bioavailability [10] | clearance [11] | IC50 [13] | logD [14] | Compound | IC50 [4] | IC50 [12] | also measured
1 | 480 min | 2.6 nM | > 100 µM | > 30 µM | > 20 µM | 87% | 800 nM | < 1% | 12 mL/min/kg | > 20 µM | – | C[C@@H](C(=O)Nc1ccc(C[C@@H]2CC[C@H]([C@H](O)c3cccnc3)N2)cc1)n1ncccc1=O | > 30 µM | > 30 µM | AUC/dose ([3]; BLD = below limit of detection): BLD
2 | – | – | 79 µM | – | – | 82% | – | – | – | – | 1.1 | O=C(Nc1ccc(C[C@@H]2CC[C@H]([C@H](O)c3cccnc3)N2)cc1)[C@@H]1CCc2scnc21 | – | – | remaining at 24 h [15]: 1%; remaining at 24 h [16]: 79%
3 | 180 min | 2.2 nM | > 100 µM | > 30 µM | > 20 µM | 113% | 2500 nM | 1% | 24 mL/min/kg | > 20 µM | 0.6 | O=C(Cn1cccnc1=O)Nc1ccc(C[C@@H]2CC[C@H]([C@H](O)c3ccccc3)N2)cc1 | > 30 µM | > 30 µM | AUC/dose [3]: 24 nM·h/mg/kg; IC50 [17]: > 100 µM; IC50 [18]: 39 µM; IC50 [19]: > 100 µM
4 | – | 0.9 nM | – | 30 µM | > 20 µM | 92% | 1400 nM | – | – | > 20 µM | 1.2 | Nc1nc(CC(=O)Nc2ccc(C[C@@H]3CC[C@H]([C@H](O)c4ccccc4)N3)cc2)cs1 | 19 µM | – | –
5 | – | – | – | – | – | – | – | – | – | – | – | Nc1nc(CC(=O)Nc2ccc(CCNC[C@H](O)c3ccccc3)cc2)cs1 [MIRABEGRON] | – | – | Activity [20]: Dose-dependent effect; minimal effective dose ([20]; 0.75 h, read-out: MED): 0.3 mg/kg; Activity [21]: Dose-dependent effect; minimal effective dose ([21]; 0.75 h, read-out: MED): 0.3 mg/kg
